Laboratory results as given in patent US12172986B2, “Splicing modulator antibody-drug conjugates and methods of use” (EISAI R&D MANAGEMENT CO., LTD., priority 2018, dated 2024).
Several values for one entry are separate records, joined by “and”; a condition that tells them apart may be missing. Identical values can stand only once.

How the values were obtained:
HCC1954 cells = assay: Cell viability CellTiter-Glo, HCC1954; assay type: cell-based; conditions: unconjugated payload of the ADC
Experimental: (§2) HCC1954 (American Type Culture Collection (ATCC)) breast ductal carcinoma cells were plated at 2000 cells/well in flat bottom 96-well tissue culture plates (Corning) in a total volume of 90 μL tissue culture medium supplemented with 10% fetal bovine serum (ThermoFisher Scientific). Cells were treated with a 3-fold serial dilution of compound from 200 nM to 0.03 nM. Each concentration was tested in triplicate. At the time of treatment, a plate of untreated cells was evaluated using CellTiter-Glo®2.0 Luminescent Cell Viability Assay according to the manufacturer's recommendations (Promega; #G9241). CellTiter-Glo® 2.0 reagent was added to the medium, incubated, and assayed on an EnVision Multilabel Reader (PerkinElmer). Values represent time zero (TO). […] Percentage growth inhibition was calculated as: [(T144-T0)/(C-TO)]×100 for concentrations for which T144>/=TO or [(T144-T0)/T0]×100 for concentrations for which T144<TO. The dose response curve plots were generated using Prism 7 (Graphpad) and fit using nonlinear regression analysis and the log(inhibitor) versus response-variable slope (four parameters).
(§3) HCC1954 (ATCC), 2000 cells/well), N87 (ATCC, 4000 cells/well), SKBR3 (ATCC, 3000 cells/well), and MCF7 (ATCC, 1500 cells/well) cell lines were used.

MCF7 cells = assay: Cell viability CellTiter-Glo, HER2-negative MCF7; conditions: unconjugated payload of the ADC
Experimental: HCC1954 (American Type Culture Collection (ATCC)) breast ductal carcinoma cells were plated at 2000 cells/well in flat bottom 96-well tissue culture plates (Corning) in a total volume of 90 μL tissue culture medium supplemented with 10% fetal bovine serum (ThermoFisher Scientific). Cells were treated with a 3-fold serial dilution of compound from 200 nM to 0.03 nM. Each concentration was tested in triplicate. At the time of treatment, a plate of untreated cells was evaluated using CellTiter-Glo®2.0 Luminescent Cell Viability Assay according to the manufacturer's recommendations (Promega; #G9241). CellTiter-Glo® 2.0 reagent was added to the medium, incubated, and assayed on an EnVision Multilabel Reader (PerkinElmer). Values represent time zero (TO). […] Using the luminescence value at time zero (TO), DMSO control growth (C), and test growth in the presence of compound (T144), the percentage growth was calculated at each of the compound concentrations levels. Percentage growth inhibition was calculated as: [(T144-T0)/(C-TO)]×100 for concentrations for which T144>/=TO or [(T144-T0)/T0]×100 for concentrations for which T144<TO. The dose response curve plots were generated using Prism 7 (Graphpad) and fit using nonlinear regression analysis and the log(inhibitor) versus response-variable slope (four parameters).
as §3

N87 cells = assay: Cell viability CellTiter-Glo, N87; assay type: cell-based, human; conditions: unconjugated payload of the ADC
Experimental: as §2, §3

THP1.1 = assay: Payload cell potency and lethality CTGlo 72 h, THP1.1; assay type: cell-based; conditions: for CTGlo-AT S GMean LD50 (nM) 72 h THP1.1: payload
PC3 cells = assay: Cell viability, EPHA2-expressing PC3; assay type: cell-based; conditions: corresponding payload alone
Experimental: as §2

MOLP8 cells = assay: Cell viability, CD138-expressing MOLP8; assay type: cell-based; conditions: for LD50 (nM) (payload) / Rmin (%) (payload): unconjugated payload of the ADC
Experimental: as §2

[1] = Caco-2 permeability of ADC payload; assay type: in vitro ADME; conditions: human, Caco-2; payload, B-A/A-B; read-out: Eflux ratio
Experimental: (§1) Integrity of cell monolayer was confirmed by TEER (transepithelial electrical resistance) and Lucifer yellow. Payloads were spiked in duplicate at 10 μM, separately, on both sides of the cell monolayer. Permeability rates from the apical to basolateral (A-B) direction and the basolateral to apical (B-A) direction were determined by sampling aliquots from both chambers immediately after treatment (t=0) and following incubation for 2 hours. Samples were protein precipitated with organic solvent containing internal standard and analyzed by LC-MS/MS (SCIEX; API 5500). The area ratio responses of payload/internal standard over time in both directions were used to generate permeability (cm/see) values. Efflux ratio was calculated by dividing B-A/A-B. Control compounds for low and high permeability and efflux behaved as expected.

Caco-2 cells = assay: Caco-2 permeability of ADC payload; assay type: in vitro ADME; conditions: for Perm. Mean Caco-2 A-B Perm (10e-6 cm/s) / Perm. Mean Caco-2 B-A Perm (10e-6 cm/s): corresponding free payload of the ADC; for Eflux ratio: payload, B-A/A-B; for Permeability Caco-2 A-B (10e-6 cm/s): Table 26, corresponding payload
Experimental: as §1

Ad2.2 pre-mRNA splicing = assay: In vitro splicing (IVS) RT-qPCR, Ad2.2 pre-mRNA, HeLa nuclear extract; assay type: biochemical; conditions: payload of the ADC; read-out: qPCR-IVS-AT S GMean IC50 (nM) Ad2.2 HELA.2
Experimental: To evaluate payload activity in a cell-free system, an in vitro splicing assay was performed. The payloads were incubated with nuclear extracts and pre-mRNA substrate minigenes.
HeLa nuclear extract preparation: HeLa S3 cell pellets were resuspended in hypotonic buffer (10 mM HEPES pH 7.9, 1.5 mM MgCl2, 10 mM KCl, 0.2 mM PMSF, 0.5 mM DTT) and the suspension was brought up to a total of 5 packed cell volume (PCV). After centrifugation, the supernatant was discarded, and the cells were brought up to 3 PCV with hypotonic buffer and incubated on ice for 10 min. Cells were lysed using a dounce homogenizer and then centrifuged. […]. The nuclei were gently mixed for 30 min before centrifuging. The supernatant (nuclear extract) was then dialyzed into storage buffer (20 mM HEPES pH 7.9, 100 mM KCl, 0.2 mM EDTA, 20% glycerol, 0.2 mM PMSF, 0.5 mM DTT). Protein concentration was determined using NanoDrop 8000 UV-Vis spectrophotometer (ThermoFisher Scientific).
IVS: All Ad2-derived sequences (Pellizzoni et al. (1998) Cell 95(5):615-24) were cloned into pcDNA3.1(+) vector (Promega) using 5′ EcoRI and 3′ Xbal restriction sites. The plasmids were linearized using Xbal and used as DNA templates in in vitro transcription reactions. The FtzΔi intron-less plasmid (Luo and Reed (1999) 96(26):14937-42) was linearized using EcoRI. All RNAs were in vitro transcribed and then purified using MEGAScript T7 (Invitrogen) and MegaClear (Invitrogen) kits, respectively. For splicing reactions using Ad2 variant pre-mRNAs, 1 μL reactions were prepared using 8 μg nuclear extracts prepared from HeLa S3, 2 ng pre-mRNA, 0.2 ng FTZΔi, and varying concentrations of compounds or DMSO. After a 15 min pre-incubation at 30° C., 1 μL splicing activation buffer (0.5 mM ATP, 20 mM creatine phosphate, 1.6 mM MgCl2) was added, and the reactions were incubated for 90 min at 30° C. The reactions were then quenched with 13 μL DMSO, and 25 nL was used for RT-qPCR. RT-qPCR reactions were prepared using TaqMan RNA-to-CT 1-step kit (Life Technologies), RNA from splicing reactions, Ad2 (forward: […]; reverse: […]; probe: […]) and Ftz (forward: […]; reverse: […]; probe: […]) mRNA primer-probe sets. Prism 7 (Graphpad) was used for non-linear regression curve fitting of the formed spliced product and normalized to the control (DMSO) sample. […] In the presence of payload, a decrease in the amount of spliced product was observed.

Ad2.1 pre-mRNA splicing = assay: In vitro splicing (IVS) RT-qPCR, Ad2.1 pre-mRNA, HeLa nuclear extract; assay type: biochemical; conditions: payload of the ADC; read-out: qPCR-IVS-AT S Gmean IC50 (nm) Ad2.1 HELA.2
Experimental: HeLa nuclear extract preparation: HeLa S3 cell pellets were resuspended in hypotonic buffer (10 mM HEPES pH 7.9, 1.5 mM MgCl2, 10 mM KCl, 0.2 mM PMSF, 0.5 mM DTT) and the suspension was brought up to a total of 5 packed cell volume (PCV). After centrifugation, the supernatant was discarded, and the cells were brought up to 3 PCV with hypotonic buffer and incubated on ice for 10 min. Cells were lysed using a dounce homogenizer and then centrifuged. […] The nuclei were gently mixed for 30 min before centrifuging. The supernatant (nuclear extract) was then dialyzed into storage buffer (20 mM HEPES pH 7.9, 100 mM KCl, 0.2 mM EDTA, 20% glycerol, 0.2 mM PMSF, 0.5 mM DTT). Protein concentration was determined using NanoDrop 8000 UV-Vis spectrophotometer (ThermoFisher Scientific).
IVS: All Ad2-derived sequences (Pellizzoni et al. (1998) Cell 95(5):615-24) were cloned into pcDNA3.1(+) vector (Promega) using 5′ EcoRI and 3′ Xbal restriction sites. The plasmids were linearized using Xbal and used as DNA templates in in vitro transcription reactions. The FtzΔi intron-less plasmid (Luo and Reed (1999) 96(26):14937-42) was linearized using EcoRI. All RNAs were in vitro transcribed and then purified using MEGAScript T7 (Invitrogen) and MegaClear (Invitrogen) kits, respectively. For splicing reactions using Ad2 variant pre-mRNAs, 1 μL reactions were prepared using 8 μg nuclear extracts prepared from HeLa S3, 2 ng pre-mRNA, 0.2 ng FTZΔi, and varying concentrations of compounds or DMSO. After a 15 min pre-incubation at 30° C., 1 μL splicing activation buffer (0.5 mM ATP, 20 mM creatine phosphate, 1.6 mM MgCl2) was added, and the reactions were incubated for 90 min at 30° C. The reactions were then quenched with 13 μL DMSO, and 25 nL was used for RT-qPCR. RT-qPCR reactions were prepared using TaqMan RNA-to-CT 1-step kit (Life Technologies), RNA from splicing reactions, Ad2 (forward: [sequence]; reverse: [sequence]; probe: [sequence]) and Ftz (forward: [sequence]; reverse: [sequence]; probe: [sequence]) mRNA primer-probe sets. Prism 7 (Graphpad) was used for non-linear regression curve fitting of the formed spliced product and normalized to the control (DMSO) sample.

[2] = Chemical stability of ADC payload, pH 5.5 buffer; conditions: Table 26; corresponding payload, pH 5.5, 37C, t1/2

Structure (SMILES) | Payload LD50 (HCC1954 cells) [nM] | Payload Rmin (%) (HCC1954 cells) | Payload LD50 (MCF7 cells) [nM] | Payload Rmin (%) (MCF7 cells) | Payload LD50 (N87 cells) [nM] | CTGlo-AT S GMean LD50 (nM) 72 h THP1.1 (THP1.1) [nM] | Payload LD50 (PC3 cells) [nM] | LD50 (nM) (payload) (MOLP8 cells) | Rmin (%) (payload) (MOLP8 cells) | efflux ratio at 2 h, 10 μM [1] | IC50 (Ad2.2 pre-mRNA splicing) [nM] | IC50 (Ad2.1 pre-mRNA splicing) [nM] | pH 5.5 Stability (t1/2, 37C) [2] | Permeability Caco-2 A-B (10e-6 cm/s) (Caco-2 cells) | other results
CC[C@H](O)[C@@H](C)C1OC1C[C@@](C)(O)/C=C/C=C(\C)[C@H]1OC(=O)C[C@H](O)CC[C@@](C)(OC)[C@@H](OC(=O)N2CCNCC2)/C=C/[C@@H]1C (stereo in doubt) [D1, (2S,3S,6S,7R,10R,E)-10-hydroxy-2-((R,2E,4E)-6-hydroxy-7-((2S,3S)-3-((2R,3S)-3-hydroxypentan-2-yl)oxiran-2-yl)-6-methylhepta-2,4-dien-2-yl)-7-methoxy-3,7-dimethyl-12-oxooxacyclododec-4-en-6-yl piperazine-1-carboxylate] | 5.485 | −78.579% and −75.579% | 135.42 | −63.414 | >200 | 41.408 | >400 | 25.712 | −100.248 | 14.6 | 15.9 | 17.6 |  |  | GI50 (MOLP8 cells; Homo sapiens, MOLP-8, unconjugated payload of the ADC, read-out: GI50 (nM) (payload)): 6.88 nM; Perm. Mean Caco-2 A-B Perm (10e-6 cm/s) (Caco-2 cells): 0.14 10e-6 cm/s; Perm. Mean Caco-2 B-A Perm (10e-6 cm/s) (Caco-2 cells): 2.05 10e-6 cm/s; Eflux ratio (Caco-2 cells): 14.643
CC[C@H](O)[C@@H](C)C1OC1C[C@@](C)(O)/C=C/C=C(\C)[C@H]1OC(=O)C[C@H](O)CC[C@@](C)(OC(C)=O)[C@@H](OC(=O)N2CCNCC2)/C=C/[C@@H]1C (stereo in doubt) [D4, (2S,3S,6S,7R,10R,E)-7-acetoxy-10-hydroxy-2-((R,2E,4E)-6-hydroxy-7-((2S,3S)-3-((2R,3S)-3-hydroxypentan-2-yl)oxiran-2-yl)-6-methylhepta-2,4-dien-2-yl)-3,7-dimethyl-12-oxooxacyclododec-4-en-6-yl piperazine-1-carboxylate] | 6.374 | −81.34% | 96.46 | −60.923 | 38.774 | 33.329 | >400 | 12.99 | −101.935 |  | 17.3 | 20.9 | 4.5 | 0.1 10e-6 cm/s | Perm. Mean Caco-2 A-B Perm (10e-6 cm/s) (Caco-2 cells): 0.1 10e-6 cm/s; Perm. Mean Caco-2 B-A Perm (10e-6 cm/s) (Caco-2 cells): 1.79 10e-6 cm/s; Eflux ratio (Caco-2 cells): 17.9
CC(=O)N1CCC(n2nnc3c(F)cc(/C=C(\C)[C@H]4OC(=O)C[C@H](O)CC[C@H](C)[C@@H](OC(=O)N5CCNCC5)/C=C/[C@@H]4C)cc32)CC1 [D14] |  |  | 77.198 | −61.886 | >200 | 25.594 | >400 | 8.5 | −61 | 202 | 8.59 | 10 |  |  | GI50 (THP1.1; read-out: CTGlo-AT S GMean GI50 (nM) Ad2.2 HELA.2): 3.58 nM
CC(=O)N1CCC(n2nnc3c(F)cc(/C=C(\C)[C@H]4OC(=O)C[C@H](O)CC[C@H](C)[C@@H](OC(=O)N5CCN(C)CC5)/C=C/[C@@H]4C)cc32)CC1 [D15] |  |  | 130.398 | −68.503 |  | 11.038 | >400 | 9.178 | −100.198 |  | 4.93 | 4.63 | 7 | 3.4 10e-6 cm/s | 
C/C(=C\c1cc(F)cc(N2CCN(C(=O)Cn3cccn3)CC2)c1)[C@H]1OC(=O)C[C@H](O)CC[C@H](C)[C@@H](OC(=O)N2CCNCC2)/C=C/[C@@H]1C [D16] | 2.037 | −84.412% |  |  | >200 | 21.46 |  |  |  | 32.4 | 15.1 | 16 | 7 | 0.72 10e-6 cm/s | GI50 (HCC1954 cells; Homo sapiens): 0.358 nM; GI50 (N87 cells; Homo sapiens): 0.41 nM
C/C(=C\c1cc(F)cc(N2CCOCC2)c1)[C@H]1OC(=O)C[C@H](O)CC[C@H](C)[C@@H](OC(=O)N2CCN(C)CC2)/C=C/[C@@H]1C [D17] |  |  |  |  |  | 24.908 |  |  |  | 0.896 | 9.44 | 17.9 | 7 | 20 10e-6 cm/s | 
CC[C@H](O)[C@@H](C)[C@H]1O[C@@H]1C[C@H](C)/C=C/C=C(\C)[C@H]1OC(=O)C[C@H](O)CC[C@@](C)(OC)[C@@H](OC(=O)N2CCN(C)CC2)/C=C/[C@@H]1C [D19, (2S,3S,6S,7R,10R,E)-10-hydroxy-2-((S,2E,4E)-7-((2R,3R)-3-((2R,3S)-3-hydroxypentan-2-yl)oxiran-2-yl)-6-methylhepta-2,4-dien-2-yl)-7-methoxy-3,7-dimethyl-12-oxooxacyclododec-4-en-6-yl 4-methylpiperazine-1-carboxylate] |  |  |  |  |  |  |  | 4.58 | −62.2 |  |  |  | 0.8 | 16 10e-6 cm/s | 
C/C(=C\c1cccc(S(=O)(=O)N2CCCC2)c1)[C@H]1OC(=O)C[C@H](O)CC[C@H](C)[C@@H](OC(=O)N2CCN(C)CC2)/C=C/[C@@H]1C [D34] |  |  |  |  |  |  |  |  |  |  |  |  | 7 | 26 10e-6 cm/s | 
